“And” between values parts separate entries of the source, which are not always exact repeats. Equal values may be shown once.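 A five-concentration, 48-hour dose response in 96-well plates underlies each endpoint, interpolated linearly between surrounding concentrations. GI50 marks 50% less growth. TGI is the concentration that stops growth completely.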
Columns and labels:
Experiment in all cases: NCI-60 cell line screen, 48 h
HOP-92 NSCLC = test system: HOP-92 NSCLC
SW-620 colon = test system: SW-620 colon
SNB-75 CNS = test system: SNB-75 CNS
DMS 273 small cell lung = test system: DMS 273 small cell lung
KM20L2 colon = test system: KM20L2 colon
DMS 114 small cell lung = test system: DMS 114 small cell lung
U251 CNS = test system: U251 CNS
HCT-15 colon = test system: HCT-15 colon
OVCAR-3 ovarian = test system: OVCAR-3 ovarian
LXFL 529 NSCLC = test system: LXFL 529 NSCLC

| Compound | TGI (HOP-92 NSCLC) | TGI (SW-620 colon) | TGI (SNB-75 CNS) | TGI (DMS 273 small cell lung) [µM] | TGI (KM20L2 colon) [µM] | TGI (DMS 114 small cell lung) | TGI (U251 CNS) [µM] | TGI (HCT-15 colon) [µM] | TGI (OVCAR-3 ovarian) | TGI (LXFL 529 NSCLC) | GI50 (HOP-92 NSCLC) [µM] | GI50 (SW-620 colon) [µM] | GI50 (SNB-75 CNS) [µM] | GI50 (DMS 273 small cell lung) [µM] | GI50 (KM20L2 colon) [nM] | GI50 (DMS 114 small cell lung) [µM] | GI50 (U251 CNS) [µM] | GI50 (HCT-15 colon) [nM] | GI50 (OVCAR-3 ovarian) [µM] | GI50 (LXFL 529 NSCLC) [µM] |
| --- | --- | --- | --- | --- | --- | --- | --- | --- | --- | --- | --- | --- | --- | --- | --- | --- | --- | --- | --- | --- |
| CC1OC(n2cc(F)c(=O)[nH]c2=O)C=CC1O (stereo not given) | > 100 µM | > 71.6 µM | > 100 µM | > 100 | > 100 | > 100 µM | > 100 | > 100 | > 100 µM | > 100 µM |  |  |  |  |  |  |  |  |  |  |
| O=[N+]([O-])c1nccn1CC(O)c1ccc(F)cc1 (stereo not given) | > 100 µM | > 100 µM | > 100 µM | > 100 | > 100 | > 100 µM | > 100 | > 100 | > 100 µM | > 100 µM |  |  |  |  |  |  |  |  |  |  |
| O=S(O)CCCCSSCC(O)C(O)CSSCCCCS(=O)O (stereo not given) | 79.7 µM and 96.5 µM | 47.6 µM and 61.8 µM | > 100 µM and 88.7 µM | > 100 | > 100 | 34 µM and 56.6 µM | > 100 | > 100 | 23.8 µM and 25.6 µM | 22.5 µM and 30.5 µM |  |  |  |  |  |  |  |  |  |  |
| CCN(CC)CCOc1ccc(/C=C(\C#N)c2ccc(OCCN(CC)CC)cc2)cc1 | 55.4 µM | 29.6 µM | 47.8 µM | 26.5 | 4.5 | 23.2 µM | 35.8 | 30.8 | > 63.1 µM | 41.3 µM |  |  |  |  |  |  |  |  |  |  |
| O=S(=O)([O-])c1ccc2c(c1)-c1nc-2nc2[n-]c(nc3nc(nc4[n-]c(n1)c1ccc(S(=O)(=O)[O-])cc41)-c1cc(S(=O)(=O)[O-])ccc1-3)c1ccc(S(=O)(=O)[O-])cc21.[Cu+2].[Na+] | > 100 µM | > 71 µM | > 100 µM | > 100 | > 100 | > 100 µM | > 100 | 36.4 | > 100 µM | > 100 µM | 38.9 | 10.8 | > 67.3 | 6.07 | 2350 | 31.2 | 40.3 | 977 | > 28.3 | 26.5 |
| CCCCOC(=O)C1C(c2ccc(Cl)cc2)NC(c2ccc(Cl)cc2)C(C(=O)OCCCC)S1(=O)=O (stereo not given) | > 100 µM | > 100 µM | > 100 µM | > 100 | > 100 | > 100 µM | > 100 | > 100 | > 100 µM | > 100 µM |  |  |  |  |  |  |  |  |  |  |
| COC(=O)c1cc2c3ccccc3n(C(C)=O)c2cn1 | > 100 µM | > 100 µM | > 100 µM | > 100 | > 100 | > 100 µM | > 100 | > 100 | > 100 µM | > 100 µM |  |  |  |  |  |  |  |  |  |  |
| O=C1c2ccccc2C2(Br)C(=O)c3ccccc3C12 (stereo not given) | > 100 µM | > 100 µM | > 100 µM | 42.5 | > 100 | > 100 µM | > 100 | > 100 | > 100 µM | > 100 µM |  |  |  |  |  |  |  |  |  |  |
| COC(=O)C12C3C4C1C1C2C3C41C(=O)OC(C)(C)C (stereo not given) | > 100 µM | > 75 µM | > 100 µM | > 60.5 | > 100 | > 67.4 µM | > 100 | > 100 | > 100 µM | > 100 µM |  |  |  |  |  |  |  |  |  |  |
| O=C(O)CNc1cc(-c2ccccc2)nc(NCC(=O)O)n1 | > 100 µM | > 100 µM | > 100 µM | > 100 | > 100 | > 100 µM | > 100 | > 100 | > 100 µM | > 100 µM |  |  |  |  |  |  |  |  |  |  |
| O=C1CN=C(C[N+](=O)[O-])c2ccccc21 | > 100 µM | > 100 µM | > 100 µM | > 100 | > 100 | > 100 µM | > 100 | > 100 | > 100 µM | > 100 µM |  |  |  |  |  |  |  |  |  |  |

Reference: PubChem BioAssay (NCI)
